Tests used:
woolly cupgrass = assay: Test C pre-/postemergence test; format: in vivo, Eriochloa villosa; conditions: for Plant response rating, Cupgrass, Woolly: scale 0 to 100, 0 no effect, 100 complete control
How it was run: (§1)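 Seeds were planted and treated preemergence with test chemical in a non-phytotoxic solvent mixture containing surfactant. Postemergence applications of the same formulation went onto plants 2 to 18 cm tall (1- to 4-leaf stage). A dash marks no test result.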

common ragweed = assay: Test F preemergence test; format: in vivo, Ambrosia elation; conditions: scale 0 to 100
How it was run: (§2)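 Compound in a non-phytotoxic solvent blend with surfactant is applied preemergence to planted seeds or postemergence to sugarcane plants. Plants and controls stay in the greenhouse 14 to 21 days before visual comparison.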

purple nutsedge = assay: Test F preemergence test; format: in vivo, Cyperus rotundus; conditions: scale 0 to 100
How it was run: as §2

quackgrass = assay: Test F preemergence test; format: in vivo, Elytrigia repens; conditions: scale 0 to 100
How it was run: as §2

Italian ryegrass = assay: Test F preemergence test; format: in vivo, Lolium multiflorum; conditions: scale 0 to 100
How it was run: as §2

goosegrass = assay: Test F preemergence test; format: in vivo, Eleusine indica; conditions: scale 0 to 100
How it was run: as §2

Surinam grass = assay: Test F preemergence test; format: in vivo, Brachiaria decumbens; conditions: scale 0 to 100
How it was run: as §2

bermudagrass = assay: Test F preemergence test; format: in vivo, Cynodon dactylon; conditions: scale 0 to 100
How it was run: as §2

mustard = assay: Test F preemergence test; format: in vivo, Brassica nigra; conditions: scale 0 to 100
How it was run: as §2

broadleaf signalgrass = assay: Test F preemergence test; format: in vivo, Brachiaria platyphylla; conditions: scale 0 to 100
How it was run: as §2

southern sandbur = assay: Test F preemergence test; format: in vivo, Cenchrus echinatus; conditions: scale 0 to 100
How it was run: as §2

corn = assay: Test C pre-/postemergence test; format: in vivo, Zea mays; conditions: for Plant response rating, Corn: scale 0 to 100, 0 no effect, 100 complete control
How it was run: as §1

large crabgrass = assay: Test F preemergence test; format: in vivo, Digitaria sanguinalis; conditions: scale 0 to 100
How it was run: as §2

kochia = assay: Test F preemergence test; format: in vivo, Kochia scoparia; conditions: scale 0 to 100
How it was run: as §2

blackgrass = assay: Test C pre-/postemergence test; format: in vivo, Alopecurus myosuroides; conditions: for Plant response rating, Blackgrass: scale 0 to 100, 0 no effect, 100 complete control
How it was run: as §1

barnyardgrass = assay: Test F preemergence test; format: in vivo, Echinochloa crus-galli; conditions: scale 0 to 100
How it was run: as §2

[1] = 31 g ai/ha, Preemergence, scale 0 to 100
[2] = 62 g ai/ha, preemergence, scale 0 (no effect) to 100 (complete control)
[3] = preemergence, 125 g ai/ha, scale 0 (no effect) to 100 (complete control)

## CC(c1c(C(F)(F)F)nn(C)c1OC(F)F)S(=O)(=O)c1cccc[n+]1[O-] (stereo not shown) [Compound 5]
Woolly cupgrass; [1]
  Cupgrass, Woolly plant response rating: 85
Woolly cupgrass; [2]
  Cupgrass, Woolly plant response rating: 90
Woolly cupgrass; Postemergence, 31 g ai/ha
  Plant response rating (0 to 100), Cupgrass, Woolly: 0
Woolly cupgrass; Postemergence, 62 g ai/ha
  Plant response rating, Cupgrass, Woolly: 40
Woolly cupgrass; Postemergence, 125 g ai/ha
  Plant response rating, Cupgrass, Woolly: 40
Woolly cupgrass; Postemergence, 250 g ai/ha
  Plant response rating, Cupgrass, Woolly: 50
Woolly cupgrass; Preemergence, 250 g ai/ha
  Plant response rating (0 to 100), Cupgrass, Woolly: 100
Woolly cupgrass; [3]
  Cupgrass, Woolly plant response rating: 100
Common ragweed; 8 g ai/ha, preemergence
  Plant response rating, Ragweed: 50
Common ragweed; 62 g ai/ha, Preemergence
  Ragweed plant response rating: 100
Common ragweed; Preemergence, 16 g ai/ha
  Plant response rating, Ragweed: 65
Common ragweed; Preemergence, 31 g ai/ha
  Plant response rating, Ragweed: 75
Purple nutsedge; 8 g ai/ha, preemergence
  Plant response rating, Purple Nutsedge: 30
Purple nutsedge; 62 g ai/ha, Preemergence
  Purple Nutsedge plant response rating: 90
Purple nutsedge; Preemergence, 16 g ai/ha
  Plant response rating, Purple Nutsedge: 60
Purple nutsedge; Preemergence, 31 g ai/ha
  Plant response rating, Purple Nutsedge: 75
quackgrass; 8 g ai/ha, preemergence
  Plant response rating, Quackgrass: 10
quackgrass; 62 g ai/ha, Preemergence
  Quackgrass plant response rating: 85
quackgrass; Preemergence, 16 g ai/ha
  Plant response rating, Quackgrass: 50
quackgrass; Preemergence, 31 g ai/ha
  Plant response rating, Quackgrass: 70
Italian ryegrass; 8 g ai/ha, preemergence
  Plant response rating, Ryegrass, Italian: 10
Italian ryegrass; 62 g ai/ha, Preemergence
  Ryegrass, Italian plant response rating: 75
Italian ryegrass; Preemergence, 16 g ai/ha
  Plant response rating, Ryegrass, Italian: 40
Italian ryegrass; Preemergence, 31 g ai/ha
  Plant response rating, Ryegrass, Italian: 60
goosegrass; 8 g ai/ha, preemergence
  Plant response rating, Goosegrass: 10
goosegrass; 62 g ai/ha, Preemergence
  Goosegrass plant response rating: 100
goosegrass; Preemergence, 16 g ai/ha
  Plant response rating, Goosegrass: 85
goosegrass; Preemergence, 31 g ai/ha
  Plant response rating, Goosegrass: 90
Surinam grass; 8 g ai/ha, preemergence
  Plant response rating, Surinam Grass: 0
Surinam grass; 16 g ai/ha, preemergence
  Plant response rating, Surinam Grass: 80
Surinam grass; 62 g ai/ha, Preemergence
  Surinam Grass plant response rating: 100
Surinam grass; Preemergence, 31 g ai/ha
  Plant response rating, Surinam Grass: 90
bermudagrass; 8 g ai/ha, preemergence
  Plant response rating, Bermudagrass: 25
bermudagrass; 62 g ai/ha, Preemergence
  Bermudagrass plant response rating: 100
bermudagrass; Preemergence, 16 g ai/ha
  Plant response rating, Bermudagrass: 50
bermudagrass; Preemergence, 31 g ai/ha
  Plant response rating, Bermudagrass: 100
mustard; 8 g ai/ha, preemergence
  Plant response rating, Black Mustard: 0
mustard; 62 g ai/ha, Preemergence
  Black Mustard plant response rating: 85
mustard; Preemergence, 16 g ai/ha
  Plant response rating, Black Mustard: 35
mustard; Preemergence, 31 g ai/ha
  Plant response rating, Black Mustard: 75
Broadleaf signalgrass; 8 g ai/ha, preemergence
  Plant response rating, Signalgrass: 0
Broadleaf signalgrass; 16 g ai/ha, preemergence
  Plant response rating, Signalgrass: 30
Broadleaf signalgrass; 62 g ai/ha, Preemergence
  Signalgrass plant response rating: 75
Broadleaf signalgrass; Preemergence, 31 g ai/ha
  Plant response rating, Signalgrass: 35
Southern sandbur; 8 g ai/ha, preemergence
  Plant response rating, Sandbur: 15
Southern sandbur; 16 g ai/ha, preemergence
  Plant response rating, Sandbur: 75
Southern sandbur; 62 g ai/ha, Preemergence
  Sandbur plant response rating: 100
Southern sandbur; Preemergence, 31 g ai/ha
  Plant response rating, Sandbur: 100
corn; [1]
  Corn plant response rating: 0
corn; [2]
  Corn plant response rating: 40
corn; Postemergence, 31 g ai/ha
  Plant response rating (0 to 100), Corn: 0
corn; Postemergence, 62 g ai/ha
  Plant response rating, Corn: 0
corn; Postemergence, 125 g ai/ha
  Plant response rating, Corn: 0
corn; Postemergence, 250 g ai/ha
  Plant response rating, Corn: 0
corn; Preemergence, 250 g ai/ha
  Plant response rating (0 to 100), Corn: 95
corn; [3]
  Corn plant response rating: 55
Large crabgrass; 8 g ai/ha, preemergence
  Plant response rating, Crabgrass, Large: 10
Large crabgrass; 62 g ai/ha, Preemergence
  Crabgrass, Large plant response rating: 95
Large crabgrass; Preemergence, 16 g ai/ha
  Plant response rating, Crabgrass, Large: 80
Large crabgrass; Preemergence, 31 g ai/ha
  Plant response rating, Crabgrass, Large: 85
kochia; 8 g ai/ha, preemergence
  Plant response rating, Kochia: 0
kochia; 62 g ai/ha, Preemergence
  Kochia plant response rating: 40
kochia; Preemergence, 16 g ai/ha
  Plant response rating, Kochia: 0
kochia; Preemergence, 31 g ai/ha
  Plant response rating, Kochia: 0
blackgrass; [1]
  Blackgrass plant response rating: 80
blackgrass; [2]
  Blackgrass plant response rating: 100
blackgrass; Postemergence, 31 g ai/ha
  Plant response rating (0 to 100), Blackgrass: 0
blackgrass; Postemergence, 62 g ai/ha
  Plant response rating, Blackgrass: 0
blackgrass; Postemergence, 250 g ai/ha
  Plant response rating, Blackgrass: 40
blackgrass; Preemergence, 250 g ai/ha
  Plant response rating (0 to 100), Blackgrass: 100
blackgrass; [3]
  Blackgrass plant response rating: 100
barnyardgrass; 8 g ai/ha, preemergence
  Plant response rating, Barnyardgrass: 70
barnyardgrass; 62 g ai/ha, Preemergence
  Barnyardgrass plant response rating: 100
barnyardgrass; Preemergence, 16 g ai/ha
  Plant response rating, Barnyardgrass: 75
barnyardgrass; Preemergence, 31 g ai/ha
  Plant response rating, Barnyardgrass: 98

## Cn1nc(C(F)(F)F)c(C[S+]([O-])c2cccc[n+]2[O-])c1Cl (stereo not shown) [Compound 8]
Woolly cupgrass; [1]
  Cupgrass, Woolly plant response rating: 70
Woolly cupgrass; [2]
  Cupgrass, Woolly plant response rating: 98
Woolly cupgrass; Preemergence, 250 g ai/ha
  Plant response rating (0 to 100), Cupgrass, Woolly: 100
Woolly cupgrass; [3]
  Cupgrass, Woolly plant response rating: 100
Common ragweed; 62 g ai/ha, Preemergence
  Ragweed plant response rating: 35
Common ragweed; 125 g ai/ha, preemergence
  Ragweed plant response rating: 80
Common ragweed; Preemergence, 16 g ai/ha
  Plant response rating, Ragweed: 0
Common ragweed; Preemergence, 31 g ai/ha
  Plant response rating, Ragweed: 35
Purple nutsedge; 62 g ai/ha, Preemergence
  Purple Nutsedge plant response rating: 50
Purple nutsedge; 125 g ai/ha, preemergence
  Purple Nutsedge plant response rating: 65
Purple nutsedge; Preemergence, 16 g ai/ha
  Plant response rating, Purple Nutsedge: 0
Purple nutsedge; Preemergence, 31 g ai/ha
  Plant response rating, Purple Nutsedge: 0
quackgrass; 62 g ai/ha, Preemergence
  Quackgrass plant response rating: 40
quackgrass; 125 g ai/ha, preemergence
  Quackgrass plant response rating: 70
quackgrass; Preemergence, 16 g ai/ha
  Plant response rating, Quackgrass: 0
quackgrass; Preemergence, 31 g ai/ha
  Plant response rating, Quackgrass: 0
Italian ryegrass; 62 g ai/ha, Preemergence
  Ryegrass, Italian plant response rating: 75
Italian ryegrass; 125 g ai/ha, preemergence
  Ryegrass, Italian plant response rating: 100
Italian ryegrass; Preemergence, 16 g ai/ha
  Plant response rating, Ryegrass, Italian: 0
Italian ryegrass; Preemergence, 31 g ai/ha
  Plant response rating, Ryegrass, Italian: 40
goosegrass; 62 g ai/ha, Preemergence
  Goosegrass plant response rating: 80
goosegrass; 125 g ai/ha, preemergence
  Goosegrass plant response rating: 100
goosegrass; Preemergence, 16 g ai/ha
  Plant response rating, Goosegrass: 0
goosegrass; Preemergence, 31 g ai/ha
  Plant response rating, Goosegrass: 70
Surinam grass; 62 g ai/ha, Preemergence
  Surinam Grass plant response rating: 90
Surinam grass; 125 g ai/ha, preemergence
  Surinam Grass plant response rating: 100
Surinam grass; Preemergence, 31 g ai/ha
  Plant response rating, Surinam Grass: 70
bermudagrass; 62 g ai/ha, Preemergence
  Bermudagrass plant response rating: 75
bermudagrass; 125 g ai/ha, preemergence
  Bermudagrass plant response rating: 90
bermudagrass; Preemergence, 16 g ai/ha
  Plant response rating, Bermudagrass: 0
bermudagrass; Preemergence, 31 g ai/ha
  Plant response rating, Bermudagrass: 15
mustard; 62 g ai/ha, Preemergence
  Black Mustard plant response rating: 80
mustard; 125 g ai/ha, preemergence
  Black Mustard plant response rating: 95
mustard; Preemergence, 16 g ai/ha
  Plant response rating, Black Mustard: 0
mustard; Preemergence, 31 g ai/ha
  Plant response rating, Black Mustard: 70
Broadleaf signalgrass; 62 g ai/ha, Preemergence
  Signalgrass plant response rating: 75
Broadleaf signalgrass; 125 g ai/ha, preemergence
  Signalgrass plant response rating: 85
Broadleaf signalgrass; Preemergence, 31 g ai/ha
  Plant response rating, Signalgrass: 65
Southern sandbur; 62 g ai/ha, Preemergence
  Sandbur plant response rating: 80
Southern sandbur; 125 g ai/ha, preemergence
  Sandbur plant response rating: 100
Southern sandbur; Preemergence, 31 g ai/ha
  Plant response rating, Sandbur: 10
corn; [1]
  Corn plant response rating: 60
corn; [2]
  Corn plant response rating: 80
corn; Preemergence, 250 g ai/ha
  Plant response rating (0 to 100), Corn: 98
corn; [3]
  Corn plant response rating: 95
Large crabgrass; 62 g ai/ha, Preemergence
  Crabgrass, Large plant response rating: 90
Large crabgrass; 125 g ai/ha, preemergence
  Crabgrass, Large plant response rating: 98
Large crabgrass; Preemergence, 16 g ai/ha
  Plant response rating, Crabgrass, Large: 0
Large crabgrass; Preemergence, 31 g ai/ha
  Plant response rating, Crabgrass, Large: 65
kochia; 62 g ai/ha, Preemergence
  Kochia plant response rating: 0
kochia; 125 g ai/ha, preemergence
  Kochia plant response rating: 100
kochia; Preemergence, 16 g ai/ha
  Plant response rating, Kochia: 0
kochia; Preemergence, 31 g ai/ha
  Plant response rating, Kochia: 0
blackgrass; [1]
  Blackgrass plant response rating: 0
blackgrass; [2]
  Blackgrass plant response rating: 0
blackgrass; Preemergence, 250 g ai/ha
  Plant response rating (0 to 100), Blackgrass: 100
blackgrass; [3]
  Blackgrass plant response rating: 100
barnyardgrass; 62 g ai/ha, Preemergence
  Barnyardgrass plant response rating: 95
barnyardgrass; 125 g ai/ha, preemergence
  Barnyardgrass plant response rating: 100
barnyardgrass; Preemergence, 16 g ai/ha
  Plant response rating, Barnyardgrass: 70
barnyardgrass; Preemergence, 31 g ai/ha
  Plant response rating, Barnyardgrass: 80
